This note sets out measurements from patent publication US7262220B2, “Urea- and urethane-substituted acylureas, process for their preparation and their use” (Sanofi-Aventis Deutschland GmbH, priority 2002, dated 2007).

For the experiment, the target named is T1, human glycogen phosphorylase a (Homo sapiens, UniProt P06737).
T1 sequence (P06737 1-847): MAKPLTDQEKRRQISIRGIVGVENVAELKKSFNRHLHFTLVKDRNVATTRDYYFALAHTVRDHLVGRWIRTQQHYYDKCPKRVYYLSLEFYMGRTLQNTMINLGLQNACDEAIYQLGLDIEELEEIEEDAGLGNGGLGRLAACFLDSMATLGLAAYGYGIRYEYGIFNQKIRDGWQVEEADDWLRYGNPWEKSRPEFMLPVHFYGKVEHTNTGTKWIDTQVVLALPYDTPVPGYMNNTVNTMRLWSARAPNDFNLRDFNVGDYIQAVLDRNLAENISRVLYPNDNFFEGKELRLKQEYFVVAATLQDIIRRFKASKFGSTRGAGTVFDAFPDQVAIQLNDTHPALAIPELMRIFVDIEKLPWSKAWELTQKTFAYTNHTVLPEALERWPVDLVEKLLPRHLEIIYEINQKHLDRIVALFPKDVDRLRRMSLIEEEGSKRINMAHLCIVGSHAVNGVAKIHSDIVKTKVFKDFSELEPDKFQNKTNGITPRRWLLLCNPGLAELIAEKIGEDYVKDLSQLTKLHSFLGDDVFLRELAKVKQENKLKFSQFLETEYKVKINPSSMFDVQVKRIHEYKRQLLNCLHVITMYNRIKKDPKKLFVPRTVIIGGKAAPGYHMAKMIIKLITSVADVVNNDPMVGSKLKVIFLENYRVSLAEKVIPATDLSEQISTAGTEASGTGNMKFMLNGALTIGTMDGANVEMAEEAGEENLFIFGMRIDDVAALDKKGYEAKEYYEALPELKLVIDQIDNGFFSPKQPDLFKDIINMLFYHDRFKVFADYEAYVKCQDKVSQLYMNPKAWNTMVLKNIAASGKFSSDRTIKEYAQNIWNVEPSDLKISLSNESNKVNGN
Description: Glycogen phosphorylase a activity assay. The format is biochemical. Conditions: read-out: % inhibition at 10 μM. As to the method: Glycogen Phosphorylase a Activity Assay
The effect of compounds on the activity of the active form of glycogen phosphorylase (GPa) was measured in the reverse direction by following the synthesis of glycogen from glucose 1-phosphate by determining the liberation of inorganic phosphate. All the reactions were carried out as duplicate determinations in microtiter plates with 96 wells (Half Area Plates, Costar No 3696), measuring the change in absorption owing to the formation of the reaction product at the wavelength specified hereinafter in a Multiskan Ascent Elisa Reader (Lab Systems, Finland). In order to measure the GPa enzymic activity in the reverse direction, the general method of Engers et al. (Engers H D, Shechosky S, Madsen N B, Can J Biochem 1970 July; 48(7):746-754) was used to measure the conversion of glucose 1-phosphate into glycogen and inorganic phosphate, with the following modifications: human glycogen phosphorylase a (for example with 0.76 mg of protein/ml (Aventis Pharma Deutschland GmbH), dissolved in buffer solution E (25 mM β-glycerophosphate, pH 7.0, 1 mM EDTA and 1 mM dithiothreitol) was diluted with buffer T (50 mM hepes, pH 7.0, 100 mM KCl, 2.5 mM EDTA, 2.5 mM MgCl26H2O) and addition of 5 mg/ml glycogen to a concentration of 10 μg of protein/ml. […] The baseline glycogen phosphorylase a activity in the absence of test substance was determined by adding 10 μl of buffer solution T (0.1% DMSO). The mixture was incubated at room temperature for 40 minutes, and the liberated […] was measured by the general method of Drueckes et al. (Drueckes P, Schinzel R, Palm D, Anal Biochem 1995 Sep. 1; 230(1):173-177) with the following modifications: 50 μl of a stop solution of 7.3 mM ammonium molybdate, 10.9 mM zinc acetate, 3.6% ascorbic acid, 0.9% SDS are added to 50 μl of the enzyme mixture. After incubation at 45° C. for 60 minutes, the absorption at 820 nm was measured. […]

Setting [1] is: 10 μM test substance, GPa activity measured in the reverse direction (liberation of inorganic phosphate), duplicate determinations.

Usually inhibition stands for the relative decrease from the control value, in per cent.

Where two headings read alike, the source gives them in different places.

Take `COC(=O)/C=C/c1ccc(NC(=O)Oc2ccc(Cl)cc2)cc1NC(=O)NC(=O)c1cc(F)c(F)cc1Cl` [Example 110, Methyl (E)-3-[2-[3-(2-chloro-4,5-difluorobenzoyl)ureido]-4-(4-chloro-phenoxycarbonylamino)phenyl]acrylate]: the inhibition at 10 µM is 73%. In the case of `COc1cc2c(=O)[nH]c(=O)[nH]c2cc1NC(=O)NC(=O)c1cc(F)c(F)cc1Cl` [Example 132, 1-(2-Chloro-4,5-difluorobenzoyl)-3-(6-methoxy-2,4-dioxo-1,2,3,4-tetrahydro-quinazolin-7-yl)urea], the inhibition at 10 µM under setting [1] came to 97%. Same read-out and setting: the figure for `COC(=O)Nc1ccc(C(=O)O)cc1NC(=O)NC(=O)c1ccc(F)cc1Cl` [Example 3, 3-[3-(2-Chloro-4-fluorobenzoyl)ureido]-4-methoxycarbonylaminobenzoic acid] is 53%.
